According to patent publication US9198879B2, “Pharmacologically optimized multimodal drug delivery system for nordihydroguiaretic acid (NDGA)” (Napo Pharmaceuticals, Inc., priority 2011, dated 2015):
“Also recorded” adds a separate entry of the source.

Assays:
[1] = tested on: high fat diet-fed/STZ rat model; assay: Liver and muscle glycogen content after NDGA treatment; type: in vivo
Protocol: In the high fat diet-fed/STZ rat model, liver and muscle glycogen content was measured after treatment with NDGA versus vehicle. Treatment with NDGA had no effect on muscle glycogen levels when compared to control.

[2] = Phase I safety study, patients reporting adverse events; type: in vivo, human; conditions: n = 29
Protocol: (§1) The first Phase I study of NDGA was an ascending-dose, single-dose, single-blind (subject), placebo-controlled study conducted in healthy male volunteers between 18 and 45 years old. Fourteen subjects participated in up to 3 study periods, and 5 doses of NDGA were studied: 200, 400, 800, 1600, and 2000 mg. During each study period the subjects were monitored for safety for 72 hours following NDGA oral administration. Blood samples collected following NDGA administration were used to determine NDGA concentrations in plasma. […] The orally administered NDGA used in the study was contained in white, opaque, size 3 gelatin capsules. Each capsule contained 100 mg of NDGA.
The second Phase I study of NDGA was an open-label, randomized, two-period crossover study designed to determine if a high-fat meal affects the absorption of NDGA, and to provide preliminary information about possible gender differences in the pharmacokinetics of NDGA. A total of 16 healthy volunteers (8 men and 8 women), ranging in age from 19 to 48 years old, participated in this study. Each subject received an active NDGA dose under fasted conditions and another under fed conditions (the two study periods were separated by a 7-day washout period). Blood samples were collected immediately before and for 48 hours following NDGA administration and used for determination of plasma concentrations of NDGA. The NDGA used in the study was provided in white, opaque Size 0 gelatin capsules. Each capsule contained 250 mg of NDGA.

[3] = First Phase I ascending single-dose study, NDGA concentrations in plasma after oral capsules; type: in vivo, human; conditions: for AUC0-last / Cmax / Tmax: capsule, healthy male volunteers
Protocol: as §1
The results for each of the five doses are depicted in FIGS. 4 to 8 corresponding to 200, 400, 800, 1600 and 2000 mg dosages, respectively.
The pharmacokinetic parameters of NDGA as observed in this experiment are given below in Table 1: […]

ZDF rats = assay: Glucose and triglyceride lowering in ZDF rats; type: in vivo, rat
Excerpt: (§2) In this study, the following animal models where used: • Db/db mice: homozygous mice are a model of obesity, diabetes and dyslipedemia where their leptin receptor activity is deficient. • Ob/ob mice: obese mice with diabetes. • Db/lean mice: heterozygous mice that are not diabetic. • Fat/STZ rats: non-genetically diabetic overweight rats that are fed diets enriched in fat and made hyperglycemic by chemically removing their pancreatic function to reduce insulin production by treating them with streptozotocin (STZ). • Fructose/STZ rats: non-diabetic rats that are fed diets enriched in fructose and made hyperglycemic by treating them with STZ. • ZDF rats: obese and hyperglycemic rats with other metabolic disorders.
(§3) Baseline glucose and triglyceride concentrations, where appropriate, were measured for both diabetic and normal animals.

[4] = cited from earlier work
rat adipocytes = conditions: cited from earlier work
cecum = conditions: in vivo; cited from earlier work
Db/db mice = assay: Glucose lowering in db/db mice; type: in vivo, mouse; conditions: db/db mice with diabetes, given orally
Excerpt: as §2, §3

fat/STZ rat [5] = assay: Basal hepatic glucose production by intravenous infusion of radiolabeled glucose; type: in vivo; conditions: no insulin infused, p<0.05
Protocol: (§4) Studies were also conducted to determine the mechanism by which NDGA lowers glucose. To do so, NDGA was administered to determine the effects of NDGA on insulin-stimulated glucose disposition and on basal hepatic glucose production using the high fat diet fed/streptozotocin (STZ) rat model of NIDDM. Whole-body insulin-stimulated glucose disposition was measured using a constant intravenous glucose/insulin infusion, in which the steady-state plasma insulin concentration (SSPI) is held constant and the steady-state plasma glucose concentration (SSPG) is a measure of net glucose clearance. […] In these same studies basal hepatic glucose production was measured using an intravenous infusion of radiolabeled glucose (no insulin was infused).
(§5) Studies were conducted to determine the effects of NDGA (masoprocol) on insulin-stimulated glucose disposition and on basal hepatic glucose production using the fat/STZ rat. Whole-body insulin-stimulated glucose disposition was measured using a constant intravenous glucose/insulin infusion, in which the steady-state plasma insulin concentration (SSPI) is held constant and the steady-state plasma glucose concentration (SSPG) is a measure of net glucose clearance.

fat/STZ rat [6] = assay: Whole-body insulin-stimulated glucose disposition (SSPG) with constant intravenous glucose/insulin infusion; type: in vivo; conditions: steady-state plasma insulin held constant
Protocol: as §4, §5

SMILES: CC(Cc1ccc(O)c(O)c1)C(C)Cc1ccc(O)c(O)c1 (stereo not shown) [NDGA, nordihydroguaiaretic acid]
- effect on muscle glycogen levels ([1]; compared to control): no effect
- reduction of liver glycogen concentrations ([1]; versus vehicle): approximately 75%
- Patients reporting adverse event: Abdominal pain ([2]; Body as a whole): 1
- Patients reporting adverse event: Asthenia ([2]; Body as a whole): 2
- Patients reporting adverse event: Headache ([2]; Body as a whole): 8
- Patients reporting adverse event: Neck rigidity ([2]; Body as a whole): 1
- Patients reporting adverse event: Pain ([2]; Body as a whole): 1
- Patients reporting adverse event: Syncope ([2]; Cardiovascular system): 1
- Patients reporting adverse event: Diarrhea ([2]; Digestive system): 2
- Patients reporting adverse event: Dyspepsia ([2]; Digestive system): 1
- Patients reporting adverse event: GI hemorrhage ([2]; Digestive system): 1
- Patients reporting adverse event: Increased appetite ([2]; Digestive system): 1
- Patients reporting adverse event: Vomiting ([2]; Digestive system): 1
- Patients reporting adverse event: Dizziness ([2]; Nervous system): 1
- Patients reporting adverse event: Hyperesthesia ([2]; Nervous system): 1
- Patients reporting adverse event: Increased coughing ([2]; Respiratory system): 1
- Patients reporting adverse event: Pharyngitis ([2]; Respiratory system): 1
- Patients reporting adverse event: Eye pain ([2]; Special senses): 1
- Patients reporting adverse event: Hematuria ([2]; Urogenital system): 1
- AUC0-last ([3]; 200 mg single oral dose): 66 +/− 26 ng-eq hr/ml
- Cmax ([3]; 200 mg single oral dose): 32.6 +/− 15.3 ng-eq/ml
- Tmax ([3]; 200 mg single oral dose): 1.3 ± 0.5 h
- AUC0-last ([3]; 400 mg single oral dose): 385 +/− 90 ng-eq hr/ml
- Cmax ([3]; 400 mg single oral dose): 69.1 +/− 51.6 ng-eq/ml
- Tmax ([3]; 400 mg single oral dose): 1.8 ± 0.5 h
- AUC0-last ([3]; 800 mg single oral dose): 591 +/− 252 ng-eq hr/ml
- Cmax ([3]; 800 mg single oral dose): 120.3 +/− 66.3 ng-eq/ml
- Tmax ([3]; 800 mg single oral dose): 1.8 ± 1.0 h
- AUC0-last ([3]; 1600 mg single oral dose): 889 +/− 252 ng-eq hr/ml
- Cmax ([3]; 1600 mg single oral dose): 189.3 +/− 65.7 ng-eq/ml
- Tmax ([3]; 1600 mg single oral dose): 1.5 ± 0.6 h
- AUC0-last ([3]; 2000 mg single oral dose): 1380 +/− 514 ng-eq hr/ml
- Cmax ([3]; 2000 mg single oral dose): 187.6 +/− 106.0 ng-eq/ml
- Tmax ([3]; 2000 mg single oral dose): 1.0 ± 0.0 h
- Safety of each tested dose ([3]; 200, 400, 800, 1600 and 2000 mg single oral dose, monitored 72 hours): considered safe
- Shape of concentration vs. time curves ([3]; all five doses, 200 to 2000 mg): unimodal (single peak)
- Dose proportionality of peaks ([3]; increasing dose levels, 200 to 2000 mg): less than dose proportional
- Elimination ([3]; oral capsule (immediate release), lower dose levels): rapid elimination
- plasma triglyceride lowering (ZDF rats): significantly and dramatically lowered plasma triglycerides
- glucose lowering (ZDF rats; given orally): significantly lowers glucose
- solubility in aqueous media / water ([4]; aqueous media): poorly water-soluble; also recorded: insoluble
- solubility in organic solvents ([4]; organic solvents such as methanol and ethanol): soluble
- glucose transport (rat adipocytes; adipocytes, in vitro): directly stimulates glucose transport
- isoproterenol-induced lipolysis (rat adipocytes; rat adipocytes, in vitro (Gowri et al., 1999)): inhibition
- lesions in the cecum (cecum): known to cause lesions in the cecum
- glucose lowering (Db/db mice): significantly lowers glucose
- hourly hepatic glucose production compared to vehicle (fat/STZ rat [5]): significantly reduced hourly hepatic glucose production
- reduction of steady-state plasma glucose concentration (SSPG) versus vehicle control group (fat/STZ rat [6]; p<0.05): approximately 30%
- reduction of steady-state plasma glucose concentration (SSPG) versus vehicle control group (fat/STZ rat [6]; p<0.05, listed as Masoprocol): 30%
